One compound from patent US9492471B2, “Methods of treating a disease or disorder associated with Bruton'S Tyrosine Kinase” (Celgene Avilomics Research, Inc., priority 2013, dated 2016) can be followed below.

Read-outs that look alike come from different tables or passages of the source.

Test in all cases: HotSpot kinase profiling
What all share (type): biochemical

The target of test [1] is T1, NLK (Homo sapiens, UniProt Q9UBE8).
T1 construct: purchased Reaction Biology Corp
T1 sequence (Q9UBE8 1-527): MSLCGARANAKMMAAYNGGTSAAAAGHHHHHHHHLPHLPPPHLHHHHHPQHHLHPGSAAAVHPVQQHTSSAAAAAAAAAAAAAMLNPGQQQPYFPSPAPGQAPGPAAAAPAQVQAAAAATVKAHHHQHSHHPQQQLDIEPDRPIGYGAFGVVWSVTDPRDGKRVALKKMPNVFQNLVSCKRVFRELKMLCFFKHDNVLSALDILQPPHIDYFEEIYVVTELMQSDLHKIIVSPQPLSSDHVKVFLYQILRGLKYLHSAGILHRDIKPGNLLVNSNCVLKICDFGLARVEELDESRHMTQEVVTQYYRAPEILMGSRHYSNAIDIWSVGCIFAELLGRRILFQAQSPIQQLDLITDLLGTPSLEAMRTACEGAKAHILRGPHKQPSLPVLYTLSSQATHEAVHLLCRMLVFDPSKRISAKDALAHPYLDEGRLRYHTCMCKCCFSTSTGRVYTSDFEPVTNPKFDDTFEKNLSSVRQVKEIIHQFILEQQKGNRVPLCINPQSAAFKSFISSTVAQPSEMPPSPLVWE
The method in brief: (§1)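 Percent inhibition, averaged when run more than once and referenced to a DMSO negative control, came from a radioactive filter-binding readout on P81 paper. Reactions of kinase with freshly made substrate and cofactors ran for 2 h at room temperature.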

Test [2] deals with T2, PKCa (Homo sapiens, UniProt P17252).
T2 construct: purchased Reaction Biology Corp
A digest of the protocol:
as §1

Test [3] concerns the target T3, Aurora B (Homo sapiens, UniProt Q96GD4).
T3 construct: purchased Reaction Biology Corp
A digest of the protocol:
as §1

Test [4] has as its target T4, PKA (Homo sapiens, UniProt P17612).
T4 construct: purchased Reaction Biology Corp
The method in brief: as §1

Test [5] has as its target T5, KHS/MAP4K5 (Homo sapiens, UniProt Q9Y4K4).
T5 construct: purchased Reaction Biology Corp
A digest of the protocol:
as §1

The target in test [6] is T6, CAMK1b (Homo sapiens, UniProt Q6P2M8).
T6 construct: purchased Reaction Biology Corp
A digest of the protocol: as §1

The target of test [7] is T7, TXK (Homo sapiens, UniProt P42681).
T7 construct: purchased Reaction Biology Corp
T7 sequence (P42681 1-527): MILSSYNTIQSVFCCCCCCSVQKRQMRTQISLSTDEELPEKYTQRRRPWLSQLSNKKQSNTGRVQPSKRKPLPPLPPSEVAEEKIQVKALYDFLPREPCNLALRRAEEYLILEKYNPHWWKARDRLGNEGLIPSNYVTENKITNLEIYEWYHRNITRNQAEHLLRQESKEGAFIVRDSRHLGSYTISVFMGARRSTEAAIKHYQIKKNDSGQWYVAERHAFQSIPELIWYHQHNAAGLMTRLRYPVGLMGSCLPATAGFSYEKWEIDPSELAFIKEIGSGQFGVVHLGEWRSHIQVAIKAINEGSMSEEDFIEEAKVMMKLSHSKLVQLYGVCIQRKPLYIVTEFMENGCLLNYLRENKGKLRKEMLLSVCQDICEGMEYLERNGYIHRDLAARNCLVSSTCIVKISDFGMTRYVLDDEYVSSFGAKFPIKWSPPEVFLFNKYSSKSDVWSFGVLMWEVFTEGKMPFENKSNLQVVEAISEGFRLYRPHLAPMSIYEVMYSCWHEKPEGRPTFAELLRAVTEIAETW
The method in brief: as §1

Test [8] concerns the target T8, MLCK2/MYLK2 (Homo sapiens, UniProt Q9H1R3).
T8 construct: purchased Reaction Biology Corp
A digest of the protocol: as §1

The mark [9] stands for this setting: read-out: % Enzyme Activity (relative to DMSO controls) Run 1.
Where [10] appears, read: read-out: % Enzyme Activity (relative to DMSO controls) Run 2.

T3 sequence (Q96GD4 whole entry): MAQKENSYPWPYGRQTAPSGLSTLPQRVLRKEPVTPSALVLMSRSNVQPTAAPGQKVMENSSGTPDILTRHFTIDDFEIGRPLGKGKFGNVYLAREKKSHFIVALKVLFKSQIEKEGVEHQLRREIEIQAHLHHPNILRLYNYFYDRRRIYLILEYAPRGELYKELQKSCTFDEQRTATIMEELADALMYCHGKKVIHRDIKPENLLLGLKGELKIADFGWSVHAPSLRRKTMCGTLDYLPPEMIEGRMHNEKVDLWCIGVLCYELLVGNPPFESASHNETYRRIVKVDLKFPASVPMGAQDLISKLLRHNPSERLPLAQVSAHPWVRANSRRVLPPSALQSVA
T6 sequence (Q6P2M8 whole entry): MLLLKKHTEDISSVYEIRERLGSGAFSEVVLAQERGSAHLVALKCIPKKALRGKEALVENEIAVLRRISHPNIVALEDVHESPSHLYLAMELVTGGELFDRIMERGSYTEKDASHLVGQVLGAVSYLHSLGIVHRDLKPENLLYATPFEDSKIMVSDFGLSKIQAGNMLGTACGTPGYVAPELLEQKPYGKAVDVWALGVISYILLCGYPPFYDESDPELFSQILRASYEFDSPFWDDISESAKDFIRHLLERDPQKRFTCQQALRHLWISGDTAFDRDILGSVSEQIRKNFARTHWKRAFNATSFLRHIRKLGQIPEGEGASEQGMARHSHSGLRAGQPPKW
T5 sequence (Q9Y4K4 whole entry): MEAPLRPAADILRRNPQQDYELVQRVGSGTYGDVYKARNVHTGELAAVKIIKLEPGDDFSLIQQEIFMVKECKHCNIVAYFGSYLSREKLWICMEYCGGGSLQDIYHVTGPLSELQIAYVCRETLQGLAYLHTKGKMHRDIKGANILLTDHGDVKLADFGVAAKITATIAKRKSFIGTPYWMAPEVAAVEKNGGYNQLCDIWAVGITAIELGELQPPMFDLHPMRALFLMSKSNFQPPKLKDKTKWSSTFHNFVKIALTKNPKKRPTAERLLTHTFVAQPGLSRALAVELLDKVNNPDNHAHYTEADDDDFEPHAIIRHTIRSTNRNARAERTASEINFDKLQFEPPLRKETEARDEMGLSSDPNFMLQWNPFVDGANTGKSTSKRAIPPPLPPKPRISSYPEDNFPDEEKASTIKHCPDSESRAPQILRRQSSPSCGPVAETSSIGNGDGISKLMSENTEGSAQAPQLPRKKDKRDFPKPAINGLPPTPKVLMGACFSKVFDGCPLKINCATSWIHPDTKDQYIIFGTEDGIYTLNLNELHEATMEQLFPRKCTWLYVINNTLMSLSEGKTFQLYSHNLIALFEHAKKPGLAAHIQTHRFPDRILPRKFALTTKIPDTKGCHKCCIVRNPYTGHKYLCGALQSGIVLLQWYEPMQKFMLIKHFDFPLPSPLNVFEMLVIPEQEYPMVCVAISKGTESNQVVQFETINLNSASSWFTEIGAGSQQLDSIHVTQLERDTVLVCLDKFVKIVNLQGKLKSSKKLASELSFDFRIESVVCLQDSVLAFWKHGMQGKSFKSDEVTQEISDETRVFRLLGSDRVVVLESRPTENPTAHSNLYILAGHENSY

`C=CC(=O)Nc1cccc(Nc2nc(Nc3ccc(OCCOC)c(F)c3)ncc2F)c1` [Compound 2]: the inhibition (commonly the drop in the measured response relative to a control, in per cent) at 3 µM in test [1] was -1.29%; in test [2] it was 11.4%; in test [3], 86.9%; in test [4], 14.5%; in test [5] it was 7.15%; in test [6], -4.43%. Besides, the inhibition at 3 µM in test [7] came to 99.8%; in test [8], 30.1%. The remaining activity at 3 µM in test [1] (setting [9]) worked out at 99.6%; in test [1] (setting [10]) it was 103%; in test [2] (setting [9]), 88.4%; in test [2] (setting [10]) it was 88.8%; in test [3] (setting [9]), 13.2%; in test [3] (setting [10]), 12.9%. Also, the remaining activity at 3 µM in test [4] (setting [9]) is 85.8%; in test [4] (setting [10]), 85.1%; in test [5] (setting [9]), 94.9%; in test [5] (setting [10]), 90.8%; in test [6] (setting [9]), 104%; in test [6] (setting [10]), 105%. Also, the remaining activity at 3 µM is 0.42% in test [7] (setting [9]), 0.03% in test [7] (setting [10]), 71.6% in test [8] (setting [9]) and 68.1% in test [8] (setting [10]).
